Data reported in PubChem BioAssay AID179 (DTP/NCI, 2004).
Active and inactive are the calls of the source.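 How the source made its calls: active means compounds giving half or more protection of infected cells from virus-caused growth loss, again on retest; inactive means the rest.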

Test system: CEM cells HIV-1 protection, formazan growth assay
Experiment: NCI AIDS Antiviral Assay
Conditions: for IC50: measured here: growth of uninfected CEM cells
Summary of the method: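 Steps: treat uninfected and HIV-1-infected human CEM cells at five drug levels; quantify growth by soluble formazan; retest any compound reaching 50% protection; classify actives from the retest.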

CN1CC(C)(C)C(O)c2ccccc21 (centres undefined)
EC50: > 955 µM | IC50: 525 µM

CN(C)c1ccc(C(c2c(O)c3ccc(O)cc3oc2=O)c2c(O)c3ccc(O)cc3oc2=O)cc1
EC50: > 200 µM | IC50: 30.2 µM

COC(OC)[C@@H]1OC[C@H](n2cnc3c(N)ncnc32)[C@H]1O
EC50: > 200 µM | IC50: > 200 µM

COc1ccc(OC)c(/C=C/c2cnnc3ccccc23)c1
EC50: > 64.6 µM | IC50: 3.16 µM

N#CNC(N)=NCCO
EC50: > 692 µM | IC50: > 692 µM

NC(CCCCCP(=O)(c1ccccc1)C1C=CC=CC1)C(=O)O (centres undefined)
EC50: > 200 µM | IC50: > 200 µM

Cc1ccc(-c2cc(-c3ccco3)c(C#N)c(=S)[nH]2)cc1
EC50: > 200 µM | IC50: 120 µM

O=C1CSC(=S)N1c1ccccc1
EC50: > 240 µM | IC50: 178 µM

O=[N+]([O-])c1ccccc1SSc1ccccc1[N+](=O)[O-]
EC50: > 12.3 µM | outcome: inactive | IC50: 7.41 µM

O=C(Nc1noc(-c2ccccc2)n1)c1ccccc1CNc1noc(-c2ccccc2)n1
EC50: > 200 µM | IC50: > 200 µM

CC1CC(C#N)=C2NCCCCN2C1=O (centres undefined)
outcome: inactive

COc1cc(=O)cc2n(c1=O)CCC2
EC50: > 447 µM | IC50: > 447 µM

Cc1nc(C(N)=S)sc1C(=O)CC(=O)C(=O)Nc1ccc(Br)cc1
EC50: > 85.1 µM | IC50: > 85.1 µM

C#CCOCC12C=CC(O1)C1C(=O)OCC12 (centres undefined)
EC50: > 200 µM | IC50: > 200 µM

COc1ccc2cc1Oc1ccc(cc1)CC1c3c(cc(OC)c4c3Oc3cc5c(cc3O4)CCN[C@@H]5C2)CCN1C (some centres undefined)
outcome: inactive

C(=N\NC1=NCCCCN1)/c1ccc2ccccc2c1
EC50: > 200 µM | IC50: 33.1 µM

COC(=O)CSc1nnc(CSc2ccc(Cl)cc2)n1-c1ccccc1
EC50: > 200 µM | IC50: 105 µM

CCOc1ccccc1NC(=O)CC1SC(=Nc2ccc([N+](=O)[O-])cc2)NC1=O (centres undefined)
EC50: > 229 µM | IC50: 93.3 µM

CCOC(=O)CN1CC(C2=C(O)CN(CC(=O)OCC)C2=O)=CC1=O
outcome: inactive

Cc1ccc2c(c1)sc1n[nH]c(=S)n12
EC50: > 117 µM | IC50: > 117 µM

Cc1ccc(S(=O)(=O)N/N=C2/CCCOC2)cc1
EC50: > 200 µM | IC50: 138 µM

COC(=O)C1=C(c2ccccc2)ON2C(C)(C)COC12C (centres undefined)
EC50: > 200 µM | IC50: > 200 µM

COC(=O)c1c(-c2ccccc2)c2sc3ccccc3n2c1N
EC50: > 200 µM | IC50: > 200 µM

CN/N=C(\C(=O)Nc1ccc(C)c(C)c1)C(C(=O)OC)c1nc2ccc([N+](=O)[O-])cc2[nH]c1=O (centres undefined)
EC50: > 77.6 µM | IC50: > 77.6 µM

CC(CNC(=O)CCC(N)C(=O)O)C(=O)O (centres undefined)
outcome: inactive

CC(=O)Nc1ccc(S(=O)(=O)N/N=C/C(=O)O)cc1
EC50: > 200 µM | IC50: > 200 µM

CN1CC(=O)N(C)c2ncn(Cc3ccccc3)c2C1=O
outcome: inactive

COc1ccc(/C=C2\N=C(c3ccccc3)N(N=C3NC(=O)CC(=O)N3)C2=O)cc1
EC50: > 200 µM | IC50: > 200 µM

CC(C)NS(=O)(=O)c1ncnc2nc[nH]c12
outcome: inactive

CCCCCCCn1ccnc1NCCCCCCCCCCNc1nccn1CCCCCCC
EC50: > 37.2 µM | IC50: 10 µM

CC(C)(C)SSC(=S)C(c1ccccc1)c1ccccc1
EC50: > 200 µM | IC50: 182 µM

CC1=C2CC(C)(C)/C=C\C(=O)/C(C)=C\C3=C[C@H](C)C[C@]3(O2)C1=O
EC50: > 0.2 µM | IC50: 0.0955 µM

C[N+](C)(C)CC(=O)N/N=C(\CCC(=O)NCCc1ccccc1)CC(=O)c1ccccc1
outcome: inactive

O=C1c2ccccc2C(=O)c2c(S)cccc21
EC50: 148 µM | IC50: > 200 µM

O=C(CN1CCCCC1)OCOP(=O)(OCOC(=O)CN1CCCCC1)OCC1CCC(n2ccc(=O)[nH]c2=O)O1 (centres undefined)
EC50: > 100 µM | IC50: 36.3 µM

O=C(C1C(c2ccccc2)N1C(c1ccccc1)c1ccccc1)C1C(c2ccccc2)N1C(c1ccccc1)c1ccccc1 (centres undefined)
EC50: > 3.39 µM | IC50: > 3.39 µM

C=CCSSSCC=C
EC50: > 120 µM | IC50: 63.1 µM

NS(=O)(=O)c1ccc(NC(=O)c2cccnc2Nc2cccc(Cl)c2)cc1
outcome: inactive

CCCNC1=C2C[C@@H](C)C[C@@H](OC)[C@@H](OC(=O)CCCN)[C@H](C)/C=C(\C)[C@@H](OC(N)=O)[C@H](OC)/C=C\C=C(/C)C(=O)NC(=CC1=O)C2=O
EC50: > 200 µM | IC50: 11.5 µM

O=C1C2c3[nH]c4ccccc4c3C3CCCCCCC3C2C(=O)N1c1ccccc1 (centres undefined)
outcome: inactive

CC(C)c1c(P(=O)(c2ccccc2)c2ccccc2)n(C)c2ccccc12
EC50: > 100 µM | IC50: 41.7 µM

Cc1nc(N)c(N2CCN(CN)CC2)c(=O)[nH]1
EC50: > 200 µM | IC50: > 200 µM

O=c1[nH]c(=O)n(C2OC(CF)C(O)C2O)cc1N1CCOCC1 (centres undefined)
EC50: > 200 µM | IC50: > 200 µM

Cc1cc[n+]2cc(-c3ccc(/C=N/N=C(N)N)cc3)n(C)c2c1
EC50: 52.5 µM | IC50: 55 µM

CCOC(=O)N1C(=S)C(C(=O)OC)(C(=O)OC)N=C1C
EC50: > 200 µM | IC50: > 200 µM

COC1/C=C/OC2(C)Oc3c(C)c(O)c4c(O)c(c(/C=N/N5C(C)CN(Cc6ccc(C)cc6)CC5C)c(O)c4c3C2=O)NC(=O)C(C)=C/C=C/C(C)C(O)C(C)C(O)C(C)C(OC(C)=O)C1C (centres undefined)
EC50: > 200 µM | IC50: 3.89 µM

CCOC(=O)c1c(NC(=S)Nc2ccc(C)cc2)sc2c1CCN(C)C2
EC50: > 200 µM | IC50: > 200 µM

Oc1ccc(Cn2c(-c3ccc(O)cc3)nc3ccccc32)cc1
EC50: > 794 µM | IC50: > 794 µM

C=CP(=S)(c1ccccc1)c1ccccc1
EC50: > 56.2 µM | IC50: > 56.2 µM

CC(Cl)CC(=O)OCC1CCCN2CCCCC12 (centres undefined)
EC50: > 200 µM | IC50: > 200 µM

FC(F)(F)c1ccc2nc(Nc3ccc(Cl)c(Cl)c3)c(-c3ccccc3)nc2c1
EC50: > 12 µM | IC50: 8.13 µM

COc1cc(O)c2c(=O)c(OC)c(-c3ccc(OC)c(OC)c3)oc2c1.[Co]
EC50: > 100 µM | IC50: 56.2 µM

O=C(CSc1nnc(Cc2ccccc2)o1)Nc1cccc([N+](=O)[O-])c1
EC50: > 97.7 µM | IC50: > 97.7 µM

CN(O)C(=O)/C=C/c1ccc(OCc2cccc(Cl)c2)cc1
EC50: > 200 µM | IC50: 46.8 µM

NCCSSCC(N)C(=O)O (centres undefined)
EC50: > 58.9 µM | IC50: > 58.9 µM

Cc1cnoc1/N=C1\C=C(Nc2oncc2C)C(=O)c2ccccc21
EC50: > 4.37 µM | IC50: > 4.37 µM

C=C1CN(S(=O)(=O)c2ccc(C)cc2)CCCN(C(C)CC)CCCN(S(=O)(=O)c2ccc(C)cc2)C1 (centres undefined)
EC50: > 200 µM | IC50: > 200 µM

CC(C)[Si]1(C(C)C)OCC2OC(n3ccc(=O)[nH]c3=O)C(O)(CO)C2O[Si](C(C)C)(C(C)C)O1 (centres undefined)
EC50: > 200 µM | IC50: 20.9 µM

COc1ccc(C2S/C(=C\c3ccccc3O)C(=O)N2NC(=O)Cc2ccccc2)cc1 (centres undefined)
EC50: > 57.5 µM | IC50: > 57.5 µM

C#CCNCC(=O)O
EC50: 46.8 µM | IC50: > 200 µM

c1ccc2c(c1)ncn2C1CCCCO1 (centres undefined)
EC50: > 200 µM | IC50: > 200 µM

O=Cc1ccc2c(c1-c1c(C=O)ccc3c1OCO3)OCO2
EC50: > 170 µM | IC50: 79.4 µM

N#C[C@H](C(=O)c1ccccc1F)c1nc2ccccc2s1
EC50: > 200 µM | IC50: 93.3 µM

CCCCCCCCc1cc2c(O)c(c1)Cc1cc(CCCCCCCC)cc(c1O)Cc1cc(CCCCCCCC)cc(c1O)Cc1cc(CCCCCCCC)cc(c1O)Cc1cc(CCCCCCCC)cc(c1O)Cc1cc(CCCCCCCC)cc(c1O)C2
outcome: inactive
